Experimental data reported in ChEMBL document CHEMBL1151595, “Palladium-catalyzed synthesis of C3-substituted 3-deoxymorphines” (Bioorg Med Chem Lett, 1994).
pIC50: −log10 of the molar value.

How the values were obtained:
Format in all cases: tissue-based
[1] = target: Kappa-type opioid receptor (Cavia porcellus, UniProt P41144); assay: Binding to kappa opioid receptor by using [3H]U-69593 as radioligand in guinea pig cerebellum
[2] = target: Mu-type opioid receptor (Cavia porcellus) (UniProt P97266); assay: Binding to mu opioid receptor by using [3H]DAMGO as radioligand in guinea pig brain minus cerebellum at 10 uM
[3] = target: Mu-type opioid receptor (Cavia porcellus, UniProt P97266); assay: Binding to mu opioid receptor by using [3H]DAMGO as radioligand in guinea pig brain minus cerebellum
Mu-type opioid receptor, sequence (P97266 whole entry): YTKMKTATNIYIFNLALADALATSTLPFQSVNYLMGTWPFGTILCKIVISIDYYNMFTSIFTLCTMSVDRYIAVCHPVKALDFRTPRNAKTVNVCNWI

Kappa-type opioid receptor, sequence (P41144 whole entry): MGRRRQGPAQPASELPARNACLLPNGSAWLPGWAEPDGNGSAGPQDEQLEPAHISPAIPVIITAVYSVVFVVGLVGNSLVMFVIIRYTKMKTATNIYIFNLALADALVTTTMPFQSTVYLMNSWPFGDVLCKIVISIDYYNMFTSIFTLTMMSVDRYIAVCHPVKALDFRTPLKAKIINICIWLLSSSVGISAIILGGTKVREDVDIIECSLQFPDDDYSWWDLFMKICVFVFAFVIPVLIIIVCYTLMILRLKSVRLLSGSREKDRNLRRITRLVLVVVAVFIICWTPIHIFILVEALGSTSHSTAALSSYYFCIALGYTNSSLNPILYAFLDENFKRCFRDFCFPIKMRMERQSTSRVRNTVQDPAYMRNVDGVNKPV
Mu-type opioid receptor (Cavia porcellus), sequence (P97266 whole entry): as the sequence (P97266 whole entry) above

SMILES | pIC50 [1] | inhibition [2] [%] | pIC50 [3]
CN1CC[C@]23c4c5ccc(-c6cccs6)c4O[C@H]2[C@@H](O)C=C[C@H]3[C@H]1C5 | 4.60 | 49 | 
CN1CC[C@]23c4c5ccc(-c6ccco6)c4O[C@H]2[C@@H](O)C=C[C@H]3[C@H]1C5 | 5.02 |  | 5.59
Cc1ccc2c3c1O[C@H]1[C@@H](O)C=C[C@H]4[C@@H](C2)N(C)CC[C@@]341 | 4.44 |  | 5.35
CC(=O)c1ccc2c3c1O[C@H]1[C@@H](O)C=C[C@H]4[C@@H](C2)N(C)CC[C@@]341 | 5.29 |  | 6.19
CN1CC[C@]23c4c5ccc(-c6ccoc6)c4O[C@H]2[C@@H](O)C=C[C@H]3[C@H]1C5 | 6.04 |  | 6.70
CN1CC[C@]23c4c5cccc4O[C@H]2[C@@H](O)C=C[C@H]3[C@H]1C5 | 4.96 |  | 6.28
CN1CC[C@]23c4c5ccc(-c6ccccc6)c4O[C@H]2[C@@H](O)C=C[C@H]3[C@H]1C5 | 4.12 | 43 | 
CN1CC[C@]23c4c5ccc(-c6cc7ccccc7s6)c4O[C@H]2[C@@H](O)C=C[C@H]3[C@H]1C5 | 3.90 | 41 | 
CN1CC[C@]23c4c5ccc(OS(=O)(=O)C(F)(F)F)c4O[C@H]2[C@@H](O)C=C[C@H]3[C@H]1C5 | 3.95 |  | 5.19
CN1CC[C@]23c4c5ccc(-c6ccsc6)c4O[C@H]2[C@@H](O)C=C[C@H]3[C@H]1C5 | 4.82 |  | 5.48
